Experimental findings from patent US8455223B2, “Dehydrogenases, the derivatives thereof, and method for the production of optically active alkanols” (BASF SE, priority 2005, dated 2013) are described below.

Experiment [1] has as its system Comparative enzyme EP 1152054 SEQ ID NO: 1. The experiment is described as follows: Relative activity of dehydrogenase for various substrates, with cofactor regeneration in the 2-phase system (Example 3). In kind it is biochemical.
Experiment [2] shares this test system. The experiment is described as follows: Relative activity of dehydrogenase for various substrates, with cofactor regeneration, monophasic liquid system (Example 2). In kind it is biochemical. The note with it: cofactor regeneration with glucose and glucose dehydrogenase. As to the method: (§1) Relative activity of the dehydrogenases of the invention for various substrates (optical purity in % ee is indicated in brackets) with cofactor regeneration.
(§2) The reaction was carried out in a manner similar to example 1. Cofactor regeneration was carried out by way of addition of glucose and glucose dehydrogenase in a monophasic liquid system.

Experiment [3] has as its system ADH-4 enzyme SEQ ID NO: 4. The experiment is described as follows: Relative activity of dehydrogenase for various substrates, with cofactor regeneration in the 2-phase system (Example 3). In kind it is biochemical, Candida.
Experiment [4] has as its system ADH-3 enzyme SEQ ID NO: 2. The experiment is described as follows: Relative activity of dehydrogenase for various substrates, with cofactor regeneration, monophasic liquid system (Example 2). In kind it is biochemical, Candida. The note with it: cofactor regeneration with glucose and glucose dehydrogenase. As to the method: as §1, §2
Experiment [5] relates to ADH-4 enzyme SEQ ID NO: 4. The experiment is described as above. The note with it: cofactor regeneration with glucose and glucose dehydrogenase. The format is biochemical, Candida. As to the method:
as §1, §2

For experiment [6], the system named is ADH-3 enzyme SEQ ID NO: 2. Description: Relative activity of dehydrogenase for various substrates, with cofactor regeneration in the 2-phase system (Example 3). The format is biochemical, Candida.
Experiment [7] deals with ADH-3 enzyme SEQ ID NO: 2. The experiment is described as follows: Relative activity of dehydrogenase for various substrates, without cofactor regeneration (Example 1). The format is biochemical, Candida. The note with it: 37° C., approx. 20 hours, chiral gas chromatography. As to the method:
(§3) Relative activity of the dehydrogenases of the invention for various substrates (optical purity in % ee is indicated in brackets)
(§4) The reaction was carried out without cofactor regeneration.
(§5) 180 μl of 50 mM Kpi buffer, including 1 mM MgCl2
(§6) 200 μl of NADPH, 10 mM stock solution
(§7) 100 μl of substrate, 1 M stock solution 500 μl of hexane
(§8) The reaction mixture was incubated at 37° C. and 1000 rpm for approx. 20 hours. It was then centrifuged at 20° C., the clear supernatant was removed and analyzed by chiral gas chromatography.

The test system of experiment [8] is ADH-4 enzyme SEQ ID NO: 4. Described as above. The note with it: 37° C., approx. 20 hours, chiral gas chromatography. The format is biochemical, Candida. As to the method:
as §3, §4, §5, §6, §7, §8

Experiment [9] has as its system Comparative enzyme EP 1152054 SEQ ID NO: 1. The description is as above. In kind it is biochemical. The note with it: 37° C., approx. 20 hours. As to the method:
as §3, §4, §5, §6, §7, §8

Where [10] appears, read: cofactor regeneration, two-phase liquid system (MTBE: aqueous).
Setting [11] is: ADH-4 enzyme, cofactor regeneration, two-phase liquid system (MTBE: aqueous).
[12] abbreviates: ADH-3 enzyme, cofactor regeneration, two-phase liquid system (MTBE: aqueous).

Take `O=C(CCl)c1ccc(F)cc1` [FCA, 4′-fluoro-2-chloro-acetophenone]: the Relative activity in experiment [1] ([…]) amounted to 12.6; in [2] it was 50.4; in experiment [3] it was 15.3; in experiment [4], 99.5; in [5] it was 53.6; in experiment [6] it was 99.5.
Consider `CC(=O)c1ccccc1` [Acetophenone], for which the Relative activity is listed as 0.2 in [1] (setting [10]); 0.7 in [2]; 0.4 in experiment [3] (setting [11]); 8.9 in experiment [4]; 71.2 in [6] (setting [12]); 16.08 in experiment [7]. In addition, the Relative activity in [8] is 3.14; in experiment [9] it was 0.84.
Regarding 4-chloro-methoxyacetophenone [CMAP], the Relative activity is recorded as 46.8 in [1] (setting [10]); 77.1 in experiment [3] (setting [11]); 100 in experiment [6] (setting [12]); 34.46 in experiment [7]; 24.89 in experiment [8]; 29.44 in [9].
On to `O=C(CCl)c1cccc(Cl)c1` [m-DICAP, 2,3′-dichloro-acetophenone], for which the Relative activity is reported as 14 (>99% R) in experiment [1] ([…]); 47.1 in experiment [2]; 24.6 (6% S) in experiment [3]; 100 in experiment [4]; 55.8 in [5]; 100 in experiment [6]. The figures for the Relative activity in experiment [7], in experiment [8] and in experiment [9] were 100, 56.38 and 2.3, respectively.
Consider `O=C(CCl)c1ccc(Cl)cc1` [p-DICAP, 2,4′-dichloro-acetophenone], for which the Relative activity is recorded as 24.2 (>99% R) in [1] ([…]); 62.5 in experiment [2]; 27.6 (42% S) in [3]; 18.9 in experiment [4]; 62.1 in [5]; 30.4 (>99% R) in [6].
